Reference: patent US9187518B2, “Antiangiogenic brassinosteroid compounds” (CONSEJO NACIONAL DE INVESTIGACIONES CIENTIFICAS Y TECNICAS …, priority 2011, dated 2015)

System: VEGF promoter
Assay: VEGF expression (pVEGF-LUC reporter) in J774A.1 cells
Format: cell-based, murine
Excerpt: The expression vectors pVEGF-LUC (encoding firefly luciferase) and pβ-gal were kindly donated by members of the research group of Dr. Arzt (FCEyN, UBA, Argentina).
J774A.1 cells grown to confluence in 6-well micro-plates were transfected with […] of pVEGF-LUC and pβ-gal plasmids diluted in the Opti MEM medium, without serum and antibiotics, and in the presence of lipofectamine (DNA lipofectamine TM 2000) as a reagent for transfection, according to the manufacturer's instructions. After 4 to 6 h of incubation at 37° C. in 5% CO2 atmosphere, the medium was discarded and replaced by fresh Opti MEM with 10% FBS, without antibiotics, and incubated at 37° C. in atmosphere 5% CO2 for 24 h.
The medium was discarded and cells were stimulated with 100 ng/ml LPS and 1 ng/ml of IL-6 in Opti MEM medium with 10% FBS. After 8 h and 16 h stimulation, the medium was discarded and the cells were lifted by scrapping in 0.1 ml per well of 1× lysis buffer. The samples were stored at −70° C. until processing.
In order to measure luciferase activity, 20 μl of each sample were mixed with 80 μl of substrate for firefly luciferase and measured in a luminometer. In the same samples, β-gal activity was measured in 96-well microplates. To do this, 20 μl of each sample were mixed with 80 μl of substrate for β-galactosidase and incubated at 37° C. until color developed. The absorbances of these mixtures were read in an ELISA reader at 450 nm.
We determined the expression of luciferase as a reporter of VEGF promoter activity values obtained by normalizing the against β-gal activity for each sample.
Thus, J774A.1 cells grown in 6-well microplates were transfected with plasmids pVEGF-LUC and pβ-gal. At 24 h post-transfection, cells were stimulated with 100 ng/ml of LPS and […], in the absence and presence of […] of Compound 1. Then, we measured the expression of VEGF and β-gal in the harvested samples and determined the expression of luciferase as a reporter of VEGF promoter activity, by normalizing the values obtained with those of β-gal activity.

`CC[C@@H](C(C)C)[C@H](O)[C@@H](O)[C@@H](C)[C@H]1CC[C@H]2[C@@H]3CCC4=CC(=O)CC[C@]4(C)[C@H]3CC[C@]12C` [Compound 1, (22S,23S)-22,23-dihydroxystigmast-4-en-3-one] was tested. Which “VEGF expression (luciferase normalized to β-gal, VEGF/β-gal)” value (100 ng/ml LPS 8 h, Compound 1 (stimulated untreated 93201.5±26770.4)) did it give?
The value was 22098.5±4052.4.

And the “VEGF expression (luciferase normalized to β-gal, VEGF/β-gal)” value (IL-6 16 h, Compound 1 (stimulated untreated 30929.5±5464))?
The value was 17900±2689.7.

And the “VEGF expression (luciferase normalized to β-gal)” value (no stimulus, compound alone, vs baseline)?
Its value is “did not induce the expression of VEGF”.
